Measured values taken from PMC8751641, “Synthesis and Antiviral Activities of Neoechinulin B and Its Derivatives” (Journal of Natural Products, 2021).

What was measured:
HCV JFH-1 [1] = assay: Anti-HCV assay (infectivity of HCV in the medium, focus-forming assay); type: cell-based; conditions: Hepatitis C virus, Huh-7.5.1; Huh7.5.1 cells, HCV JFH-1 MOI 0.15, 72 h; mean ± SD, triplicate
Experimental: (§1) The anti-HCV assay was performed as described previously.[3] In brief, Huh7.5.1 cells were treated with HCV JFH-1 at a multiplicity of infection (MOI) of 0.15 for 4 h. […] The infectivity of HCV in the medium was quantified by a focus-forming assay with Huh7.5.1 cells. Cell viability at 72 h post-treatment was simultaneously measured by the MTT assay.[16] Cell growth inhibition was evaluated as the ratio of the absorbance of the sample to that of the control.

[2] = MTT assay, cytotoxicity against host Huh7.5.1 cells; type: cell-based; conditions: human
Experimental: as §1

[3] = Cell viability of VeroE6/TMPRSS2 cells (DAPI staining, cell count); type: cell-based; conditions: chlorocebus sabaeus, 24 h, DAPI staining, surviving cell number, read-out: Cytotoxicity CC50
Experimental: (§2) The number of cells was quantified based on the measurement of the DNA content.[20] Cell growth inhibition was evaluated as the ratio of the absorbance of the sample to that of the control. […] The cells were washed with PBS and fixed in 4% paraformaldehyde. The resultant cells were stained with 0.02% 4′,6-diamidino-2-phenylindole (DAPI) and washed with PBS four times. The number of surviving cells was quantified with a high-content imaging analyzer, ImageXpress Micro Confocal (Molecular Device, San Jose, CA, USA).

SARS-CoV-2 Wk-521 strain = assay: Anti-SARS-CoV-2 assay (extracellular viral RNA, VeroE6/TMPRSS2 cells); conditions: for IC50: read-out: Anti-SARS-CoV-2 activity IC50, MOI 0.003, 24 h, extracellular viral RNA, mean ± SD, triplicate; for IC90: read-out: Anti-SARS-CoV-2 activity IC90, MOI 0.003, 24 h, extracellular viral RNA, mean ± SD, triplicate
VeroE6/TMPRSS2 cells = assay: Cell viability of VeroE6/TMPRSS2 cells (DAPI staining, cell count); type: cell-based
Experimental: as §2

LXR = assay: LXRE-driven luciferase reporter assay in Huh-7 cells; conditions: 48 h
HCV JFH-1 [4] = system: HCV JFH-1; set-up: method as in PMID 27489280; conditions: cited from earlier work
poliovirus = conditions: cited from earlier work
[5] = system: influenza A virus subtype H1N1; set-up: method as in PMID 25681711; conditions: by targeting viral hemagglutinin; cited from earlier work
recombinant LXRα = system: recombinant LXRα; set-up: method as in PMID 27489280; conditions: cited from earlier work
recombinant LXRβ = system: recombinant LXRβ; set-up: method as in PMID 27489280; conditions: cited from earlier work

SMILES | IC50 (HCV JFH-1 [1]) [µM] | IC90 (HCV JFH-1 [1]) [µM] | CC50 at 72 h [2] [µM] | CC50 at 24 h [3] [µM] | melting point [°C] | Anti-SARS-CoV-2 activity (in words) (SARS-CoV-2 Wk-521 strain) | IC50 (SARS-CoV-2 Wk-521 strain) [µM] | IC90 (SARS-CoV-2 Wk-521 strain) [µM] | Toxicity toward the host cells (in words) (VeroE6/TMPRSS2 cells) | LXRE-driven luciferase activity (agonist) (LXR) | Antiviral effects against HCV (earlier report) (HCV JFH-1 [4]) | Poliovirus RNA replication in DMVs (poliovirus) | Entry of influenza A virus subtype H1N1 [5] | Interaction with LXRα (SPR) (recombinant LXRα) | Interaction with LXRβ (SPR) (recombinant LXRβ)
C=c1[nH]c(=O)/c(=C/c2ccc(OC)c(OC)c2)[nH]c1=O [1j] | 2 ± 0.068 | > 20 | > 20 | 62.8 ± 17.4 | 237 to 238 | exhibited anti-SARS-CoV-2 activity | 10.3 ± 3.7 | 20.1 ± 8.5 |  |  |  |  |  |  | 
C=c1[nH]c(=O)/c(=C/c2ccc(C(C)(C)C)cc2)[nH]c1=O [1g] | 1.1 ± 0.34 | > 20 | > 20 | > 70 | 212 to 213 | did not show anti-SARS-CoV-2 activity |  | > 40 |  |  |  |  |  |  | 
C=c1[nH]c(=O)/c(=C/c2cc(C(C)(C)C)cc(C(C)(C)C)c2)[nH]c1=O [1f] | 0.015 ± 0.019 | > 20 | > 20 | > 100 | 204 to 205 | did not show anti-SARS-CoV-2 activity |  | > 40 |  |  |  |  |  |  | 
C=c1[nH]c(=O)/c(=C/c2ccc(C(=O)OC)cc2)[nH]c1=O [1l] | 1.2 ± 0.16 | 6.5 ± 1.84 | > 20 | > 50 | 248 to 249 | exhibited anti-SARS-CoV-2 activity | 8.4 ± 2.1 | 14.1 ± 1.8 |  |  |  |  |  |  | 
C=c1[nH]c(=O)/c(=C/c2c[nH]c3ccccc23)[nH]c1=O [1b, (Z)-3-[(1H-Indol-3-yl)methylene]-6-methylenepiperazine-2,5-dione] | 2.2 ± 0.64 | > 20 | > 20 | > 100 | 285 to 286 | did not show anti-SARS-CoV-2 activity | > 40 | > 40 |  |  |  |  |  |  | 
C=c1[nH]c(=O)/c(=C/c2ccsc2)[nH]c1=O [1e] | 1.4 ± 0.48 | > 20 | > 20 | 42.2 ± 7.9 | 242 to 243 |  |  |  | showed toxicity toward the host cells |  |  |  |  |  | 
C=CC(C)(C)c1[nH]c2ccccc2c1C[C@@H]1NC(=O)[C@H](C)NC1=O [compound 8, preechinulin] | > 20 | > 20 | > 20 | > 100 |  |  | > 40 | > 40 |  |  |  |  |  |  | 
C=c1[nH]c(=O)/c(=C/c2ccc(N(C)C)cc2)[nH]c1=O [1m] | 1.2 ± 0.54 | > 20 | > 20 | 28.3 ± 6.2 | 225 to 227 |  |  |  | showed toxicity toward the host cells |  |  |  |  |  | 
C=c1[nH]c(=O)/c(=C/c2cc(OC)c(OC)c(OC)c2)[nH]c1=O [1k] | 1.1 ± 0.6 | > 20 | > 20 | 78.8 ± 4.5 | 219 to 221 | did not show anti-SARS-CoV-2 activity |  | > 40 |  |  |  |  |  |  | 
C=CC(C)(C)c1[nH]c2ccccc2c1/C=C1\NC(=O)C(C)(OC)NC1=O (stereo not shown) [compound 6, variecolorin H] | > 20 | > 20 | > 20 | > 100 |  |  | > 40 | > 40 |  |  |  |  |  |  | 
C=c1[nH]c(=O)/c(=C/c2ccoc2)[nH]c1=O [1d] | 1.4 ± 0.34 | > 20 | > 20 | > 80 | 242 to 243 | exhibited anti-SARS-CoV-2 activity | 9.3 ± 6.2 | 21.2 ± 9 |  |  |  |  |  |  | 
O=S(=O)(c1ccccc1)N(CC(F)(F)F)c1ccc(C(O)(C(F)(F)F)C(F)(F)F)cc1 [T0901317] |  |  |  |  |  |  |  |  |  | increased the LXRE-driven luciferase activity |  |  |  |  | 
C=c1[nH]c(=O)/c(=C/c2ccc(-c3ccccc3)cc2)[nH]c1=O [1o] | 4.9 ± 0.66 | > 20 | > 20 | > 100 | 229 to 230 | exhibited anti-SARS-CoV-2 activity | 20.8 ± 8 | > 40 |  |  |  |  |  |  | 
C=CC(C)(C)c1[nH]c2ccccc2c1/C=c1\[nH]c(=O)c(=C)[nH]c1=O [1a, neoechinulin B] | 4.7 ± 1.4 | > 20 | > 20 | > 70 |  |  | 32.9 ± 13.2 | 45.6 ± 7.4 |  |  | exhibited antiviral effects against hepatitis C virus (HCV) | reduced the RNA replication of poliovirus | inhibit the entry of influenza A virus subtype H1N1 | interacts with recombinant LXRα and LXRβ | interacts with recombinant LXRα and LXRβ
C=c1[nH]c(=O)/c(=C/c2ccccc2)[nH]c1=O [1c] | 0.0059 ± 0.0042 | > 20 | > 20 | 40.1 ± 10.5 | 242 to 243 | exhibited anti-SARS-CoV-2 activity | 13.6 ± 3.2 | 20.3 ± 3.2 |  |  |  |  |  |  | 
C=c1[nH]c(=O)/c(=C/c2ccc3ccccc3c2)[nH]c1=O [1p] | 0.26 ± 0.11 | 1.9 ± 0.65 | > 20 | 40.7 ± 20.1 | 216 to 217 | did not show anti-SARS-CoV-2 activity | > 40 | > 40 |  |  |  |  |  |  | 
C=c1[nH]c(=O)/c(=C/c2ccc(C(F)(F)F)cc2)[nH]c1=O [1n] | 1.6 ± 0.32 | 9.7 ± 1.06 | > 20 | 30.1 ± 7.3 | 244 to 245 |  |  |  | showed toxicity toward the host cells |  |  |  |  |  | 
C=c1[nH]c(=O)/c(=C/c2ccc(C)cc2)[nH]c1=O [1h] | 2.7 ± 1.4 | > 20 | > 20 | 63.1 ± 17.9 | 237 to 239 | exhibited anti-SARS-CoV-2 activity | 6 ± 2.4 | 16.3 ± 6.2 |  |  |  |  |  |  | 
C=c1[nH]c(=O)/c(=C/c2ccc(OC)cc2)[nH]c1=O [1i] | 1.3 ± 0.42 | > 20 | > 20 | 47.2 ± 0.6 | 229 to 231 |  |  |  | showed toxicity toward the host cells |  |  |  |  |  | 
